Data published in patent US8481740B2, “Imidazo[1,2 a] pyridine-6-carboxamide derivatives, their use for the treatment of colon cancer and their method of manufacture” (University of the Witwatersrand, Johannesburg, priority 2009, dated 2013).
Like-named read-outs stand apart in the source and are kept apart here.

Assays:
HT-29 cell line = experiment: MTT cell viability assay, HT-29; assay type: cell-based, human; settings: read-out: IC50 (molar concentration that inhibited growth by 50%), 24 hours, 5 μM to 100 μM
Experimental: (§1) The colon cancer cells were initially exposed to the different imidazo[1,2-a]pyridines compounds at 100 μM (final concentration in the well) at 37° C. for 24 hours using an MTT assay for cell viability quantification.
(§2) The HT-29 and Caco-2 cells were exposed to the novel imidazo[1,2-a]pyridine class of compounds according to the invention in concentrations ranging from 5 μM to 100 μM for 24 hours.
(§3) The study made use of two colonic carcinoma cell lines, namely the HT-29 and Caco-2 cell lines. The HT-29 and Caco-2 cell lines were obtained from Highveld Biological, South Africa. Both cell lines were cultured in Dulbecco's Modified Eagles Medium (DMEM) (Highveld Biological, South Africa) and supplemented with 5% heat-inactivated heat-inactivated foetal bovine serum (FBS). 1 ml 10 kU penicillin G/10 mg streptomycin sulphate (pen/strep) (Highveld Biological, South Africa) and 0.4% 100 mM sodium pyruvate per 500 ml DMEM were added after filter sterilisation.
The two colon cancer cells were counted and diluted into fresh media at concentrations of 30 000 cells/well and an aliquot of 180 μl was seeded to each well in a 96-well plate. The plates were then placed in an incubator (37° C., 5% CO2, volume fraction) and the cells were allowed to divide for a period of 24 hours.
The cells were exposed to the different classes of synthetic compounds at 100 μM (final concentration in the well) at 37° C. for 24 hours using an MTT assay for cell viability quantification. After the 24 hour incubation, the plates were removed from the incubator, and an aliquot of 50 μl 0.5% MTT (USB, USA) in 1 mM PBS (pH 7.4) was layered on the media. The plates were incubated for 2 hours at 37° C. The plates were than centrifuged at 3000 rpm (Afrox Sorvall T 6000D) for 5 minutes. Following centrifugation, the medium was very carefully aspirated. Formazan crystals were dissolved in 200 μl DMSO. The absorbance was then read at 540 nm using the Absorbance Labsystems Multiskan MS, version 2.4. The controls used in the assay consisted of i) medium alone without cells, ii) medium with or without the tested compounds and iii) medium with Camptothecin.
Compounds showing cytotoxicity at a concentration of 100 μM were further diluted to obtain an IC50 concentration. All tests were performed in triplicate.

HT-29 cells = settings: 100 μM, 24 hours
Experimental: (§4) The dysfunction of the mitochondria is believed to be an important step in the commitment of the cell to apoptosis. To assess whether disruption of the mitochondrial transmembrane potential (Δψ) was involved in the apoptotic action of the novel imidazo[1,2-a]pyridines, the HT-29 and Caco-2 cells were treated for 24 hours with 100 μM of the novel compounds and then analysed by flow cytometry by using the cationic fluorescent dye 5,5′,6,6′-tetrachloro-1,1′,3,3′-tetraethylbenzimidazolcarbocyanine iodide (JC-1) to measure mitochondrial membrane depolarization in intact viable cells.
(§5) When energy is released during the oxidation reactions in the mitochondrial respiratory chain, it is stored as a negative electrochemical gradient across the mitochondrial membrane. Under these situations, the mitochondrial membrane potential (Δψ) is polarized. During the early stages of apoptosis, a collapse of the Δψ which results in a depolarized Δψ, is sometimes noticed. […] The changes in Δψ have also been noticed during necrosis (depolarisation) and cell cycle arrest (hyperpolarisation). Understanding the Δψ and how it alters during apoptosis and necrosis, may assist in determining the function of the mitochondria in these and other cellular processes. […]

white blood cells = experiment: MTT cell viability assay, white blood cells; assay type: cell-based
Experimental: Cell viability was determined by the MTT assay after the white blood cells were exposed to the novel compounds for 24 hours at an initial concentration of 100 μM. Camptothecin was used as a positive control for cytotoxicity.

caspase 3 in HT-29 cells = experiment: Caspase 3 colorimetric assay, HT-29 lysates; assay type: cell-based, human; settings: for time of maximal caspase 3 expression / time at which high caspase 3 levels were observed: time of exposure; for initiation of apoptosis compared with camptothecin: from caspase 3 levels
Experimental: (§6) As it is well known that caspases play a vital role in the execution of apoptosis, the level of caspase 3 and caspase 8 enzymatic activity in the cell lysates were determined using a caspase 3 and caspase 8 colorimetric assay kit (FIGS. 3A and B). Maximal caspase 8 expression in HT-29 cells was observed within 2 hours of exposure to all the CDK compounds. […] Maximal caspase 3 expression in the HT-29 cells was observed after 8 hours of exposure to 7 and 13, and 4 hours of exposure to 12. Maximal caspase 8 expression in the HT-29 cells was observed within 2 hours of exposure to 14, 4 and 6, and within 4 hours after exposure to 3. Maximal caspase 3 expression in the HT-29 cells was observed after 2 hours of exposure to 4 and 6, and after 4 hours of exposure to 14 and 3.
(§7) The activation of caspases initiates apoptosis in mammalian cells. Caspase 3 and Caspase 8 were detected using the CPP32 and FLICE colorimetric Assay kits, respectively. The following method (obtained from Biovision research products) was performed.
(§8) The treated HT-29 and Caco-2 cells were harvested and resuspended in 50 μl of chilled cell lysis buffer and incubated on ice for 10 minutes. The cells were centrifuged for 1 minute (10000 g) and the supernatant (cytosolic extract) was transferred to a fresh tube and placed on ice. The protein concentration was assayed using the Biorad assay method. 100-200 μg protein to 50 μl cell lysis buffer was diluted for each assay. 50 μl of 2× Reaction buffer (containing 10 mM DTT) was added to each sample. 5 μl of 4 mM IETD-pNA substrate for Caspase 8 and 5 μl of 4 mM DEVD-pNA substrate for Caspase 3 was added to each sample and incubated at 37° C. for 1-2 hours. The samples were read at 405 nm in the microtiter plate reader. Time dependent studies were performed for protease activity by attaining results 2, 4, 6, 12, and 24 hours after treatment with the compounds.

Caco-2 cells = experiment: JC-1 mitochondrial membrane potential flow cytometry, Caco-2; assay type: cell-based, human; settings: 100 μM, 24 hours
Experimental: as §4, §5

[1] = system: caspase 3 in Caco-2 cells; experiment: Caspase 3 colorimetric assay, Caco-2 lysates; assay type: cell-based, human; settings: time of exposure
Experimental: as §6, §7, §8

caspase 8 in HT-29 cells = experiment: Caspase 8 colorimetric assay, HT-29 lysates; assay type: cell-based, human; settings: time of exposure
Experimental: as §6, §7
The treated HT-29 and Caco-2 cells were harvested and resuspended in 50 μl of chilled cell lysis buffer and incubated on ice for 10 minutes. The cells were centrifuged for 1 minute (10000 g) and the supernatant (cytosolic extract) was transferred to a fresh tube and placed on ice. […] The samples were read at 405 nm in the microtiter plate reader. […]

Caco-2 cell line = experiment: MTT cell viability assay, Caco-2; assay type: cell-based; settings: Homo sapiens, read-out: IC50 (molar concentration that inhibited growth by 50%), 24 hours, 5 μM to 100 μM
Experimental: as §1, §2
as §3, with “1 ml 10 kU penicillin G/10 mg streptomycin sulphate (pen/strep) (Highveld Biological, South Africa) and 0.4% 100 mM sodium pyruvate per 500 ml DMEM were added after filter sterilisation.” left out
The two colon cancer cells were counted and diluted into fresh media at concentrations of 30 000 cells/well and an aliquot of 180 μl was seeded to each well in a 96-well plate. […]
The cells were exposed to the different classes of synthetic compounds at 100 μM (final concentration in the well) at 37° C. for 24 hours using an MTT assay for cell viability quantification. […] The absorbance was then read at 540 nm using the Absorbance Labsystems Multiskan MS, version 2.4. […]

NC(=O)c1ccc2nc(-c3ccc(OCc4ccccc4)cc3OCc3ccccc3)c(NC3CCCCC3)n2c1 [Compound 7]
IC50 (HT-29 cell line): 9.2 ± 0.83 µM | cells undergoing apoptosis (JC-1) (HT-29 cells): 79.62% | healthy cells remaining after treatment (JC-1) (HT-29 cells): 20.33% | White Blood Cell Viability % (white blood cells; 100 µM): 93.834 ± 0.271% | time of maximal caspase 3 expression (caspase 3 in HT-29 cells): 8 h

COc1ccc(-c2nc3ccc(Br)cn3c2Nc2c(C)cccc2C)c(OC)c1 [Compound 12]
cells undergoing apoptosis (JC-1), average (Caco-2 cells): 81.91% | IC50 (HT-29 cell line; Homo sapiens): 22 ± 1.17 µM | White Blood Cell Viability % (white blood cells; 24 h, 100 µM): 96.311 ± 5.023% | time of maximal caspase 3 expression (caspase 3 in HT-29 cells): 4 h

COc1ccc(-c2nc3ccc(-c4ccccc4)cn3c2Nc2c(C)cccc2C)cc1OC [Compound 14]
time at which high caspase 3 levels were observed [1]: 2 h | White Blood Cell Viability % (white blood cells; 24 h, 100 µM): 77.345 ± 1.005% | initiation of apoptosis compared with camptothecin (caspase 3 in HT-29 cells): earlier stage than camptothecin | time at which high caspase 3 levels were observed (caspase 3 in HT-29 cells): 2 h | time of maximal caspase 3 expression (caspase 3 in HT-29 cells): 4 h

COc1ccc(-c2nc3ccc(Br)cn3c2Nc2c(C)cccc2C)cc1OC [Compound 6]
time at which high caspase 3 levels were observed [1]: 2 h | White Blood Cell Viability % (white blood cells; 24 h, 100 µM): 83.762 ± 1.389% | initiation of apoptosis compared with camptothecin (caspase 3 in HT-29 cells): earlier stage than camptothecin | time at which high caspase 3 levels were observed (caspase 3 in HT-29 cells): 2 h | time of maximal caspase 3 expression (caspase 3 in HT-29 cells): 2 h

COc1ccc(-c2nc3ccc(C)cn3c2Nc2c(C)cccc2C)cc1OC [Compound 3]
time of maximal (peak) caspase 8 expression (caspase 8 in HT-29 cells): ≤ 4 h | time at which high caspase 3 levels were observed [1]: 4 h | White Blood Cell Viability % (white blood cells; 100 µM): 76.176 ± 0.567% | time at which high caspase 3 levels were observed (caspase 3 in HT-29 cells): 4 h | time of maximal caspase 3 expression (caspase 3 in HT-29 cells): 4 h

COc1ccc(-c2nc3ccc(C)cn3c2Nc2c(C)cccc2C)c(OC)c1 [Compound 13]
IC50 (HT-29 cell line): 10 ± 2.69 µM | White Blood Cell Viability % (white blood cells; 100 µM): 97.479 ± 1.178% | time of maximal caspase 3 expression (caspase 3 in HT-29 cells): 8 h

COc1ccc(OC)c(-c2nc3ccc(Br)cn3c2NCc2ccccc2)c1 [Compound 4]
time at which high caspase 3 levels were observed [1]: 2 h | White Blood Cell Viability % (white blood cells; 100 µM): 88.943 ± 1.996% | initiation of apoptosis compared with camptothecin (caspase 3 in HT-29 cells): earlier stage than camptothecin | time at which high caspase 3 levels were observed (caspase 3 in HT-29 cells): 2 h | time of maximal caspase 3 expression (caspase 3 in HT-29 cells): 2 h

CC[C@@]1(O)C(=O)OCc2c1cc1n(c2=O)Cc2cc3ccccc3nc2-1 [camptothecin, reference compound]
IC50 (Caco-2 cell line): 9.55 ± 2.21 µM | IC50 (HT-29 cell line; Homo sapiens): 9.99 ± 1.41 µM | White Blood Cell Viability % (white blood cells; 100 μM, 24 hours, MTT): 33.782 ± 2.031%
